Measured values published in patent US20190152905A1 (priority 2016, published 2019).
“And” between values parts separate entries of the source, which are not always exact repeats. Identical values can stand only once.

Legend:
plasma [1] = assay: Anticoagulant activity: prothrombin time (PT), Sysmex CA-1500; format: biochemical, human; conditions: 20 μl sample + 80 μl plasma, number in label = g/dL
Protocol: (§1) Antithrombotic (anticoagulant) activity was evaluated according to a previously reported method. Each of thromborel S, actin and thrombin, which are reagents for Sysmex CA-1500 for analysis of PT, aPTT and TT, was mounted in Sysmex CA-1500 (Siemens Healthcare, Germany) which is an automated blood coagulation test device. According to the automated procedure of the test device, clotting time (sec) (prothrombin time (PT), activated partial thromboplastin time (aPTT) and thrombin time (TT)) was measured. A sufficient amount of a sample for each of the three analyses was about 400 uL of an 80:20 mixture of plasma and a test substance.
(§2) The isolated plasma was used in an experiment in a fresh state within 5-6 hours.
(§3) In this experiment, for the relative comparison of the measured clotting time (sec) (PT, aPTT and TT) between test groups, clotting time prolongation (%) relative to triple distilled water (purified water) that is a normal control test sample was statistically analyzed. For statistical analysis, the […] anticoagulant activities of test materials were comparatively analyzed using SPSS IBM version 21.0 by one-way ANOVA at p<0.05, and significance comparison between groups was performed by Duncan's test.
(§4) The aspirin solution was immediately used at room temperature in a light-shielded state or was cold-stored.
(§5) As a control, aspirin was used, and as a vehicle control, triple distilled water (purified water) was used instead of the sample.

plasma [2] = assay: Anticoagulant activity: thrombin time (TT), Sysmex CA-1500; format: biochemical, human; conditions: 20 μl sample + 80 μl plasma, number in label = g/dL
Protocol: as §1, §2, §3, §4, §5

plasma [3] = assay: Anticoagulant activity: activated partial thromboplastin time (aPTT), Sysmex CA-1500; format: biochemical, human; conditions: 20 μl sample + 80 μl plasma, number in label = g/dL
Protocol: as §1, §2, §3, §4, §5

[4] = Body weight and body weight gain of high-fat diet mice; format: in vivo, mice (C57BL/6); conditions: for Body weight / Body weight gain: high-fat diet mice, mean
Protocol: (§6) Using 8-week-old male mice (C57BL/6) (purchased from CoreTech), anti-diabetic candidate materials were evaluated using a GTT (Glucose Tolerance Test) that is a typical method for diagnosis of diabetes.
(§7) Mice were housed at a temperature of 22±2° C. and a relative humidity of 55-60% with 12-hr light/12-hr dark cycles. Five animals were allotted to each group, and mice from the same mother were grouped into one group, because male mice tend to fight together.
(§8) As feed, high-fat diet (60% of calories from fat; Research Diet Inc., New Brunswick, N.J.) and water were fed ad libitum for 10 weeks. Herein, the water fed contained the samples prepared in Examples 1-2 (3), 2-1, 2-4-1, 2-4-2 and 2-5. As a positive control, metformin (M-072, Sigma) (250 mg/kg) was used, and as a control, the samples prepared in Comparative Examples 1-1, 2-3-2, 2-5-1, 2-5-2 and 2-6 were used.
(§9) For reference, each of the samples prepared in Examples 2-4-1, 2-4-2 and 2-5 was set to the amount to be taken by an adult (60 kg) for 3 days, and the amount was converted into a mouse dose (12-fold/kg, see the US NIH guidance), thereby preparing animal feed. Namely, the amount to be taken by an adult (60 kg) for 3 days is 180-day dose/kg, which corresponds to 15-day dose/kg for mice. Thus, the amount corresponds to 750-day dose/mouse (20 g), because the average weight of mice is about 20 g. Thus, one mouse was allowed to take 1/750 of the prepared sample each day.
(§10) In addition, each of the samples prepared in Examples 1-2 (3) and 2-1 was set to the amount to be taken by an adult (60 kg) for 2 days, and the amount was converted into a mouse dose (12-fold/kg, see the US NIH guidance), thereby preparing animal feed. Namely, the amount to be taken by an adult (60 kg) for 2 days is 120-day dose/kg, which corresponds to 10-day dose/kg for mice. Thus, the amount corresponds to 500-day dose/mouse (20 g), because the average weight of mice is about 20 g. Thus, one mouse was allowed to take 1/500 of the prepared sample each day.
The diet intake and the body weight gain were measured weekly for 8 weeks. The body weight and the diet intake were measured immediately before first drug administration, and then measured at one-week intervals.
(§11) Meanwhile, experimental analysis results were expressed as mean±S.E.M., and the significance between test groups was statistically processed using Student T-TEST, and then the significance was verified at *P<0.05.

[5] = test system: male mice (C57BL/6), high-fat diet; assay: Glucose tolerance test (GTT) at 8 weeks of high-fat diet feeding; format: in vivo
Protocol: as §6, §7, §8, §9, §10
At 8 weeks of high-fat diet feeding, a glucose tolerance test (GTT) was performed. For 8 hours for the test, mice were fasted. Then, blood was sampled from the tail vein, and initial blood glucose levels were measured with a blood glucose meter (AUTO-CHEK, Diatech Korea). Then, glucose was administered intraperitoneally to the mice at a concentration of 1 g/kg, and after 30 min, 60 min, 90 min and 120 min, blood was sampled from the mice, followed by measurement of blood glucose levels (each group consisting of five animals).
as §11

CC(=O)Oc1ccccc1C(=O)O [Asp 7.5 mg/ml, aspirin]
PT clotting time prolongation relative to purified water, Mean (plasma [1]; Table 18): 9.90%
PT clotting time prolongation relative to purified water, Mean (plasma [1]; Table 19): 17.51%
PT clotting time prolongation relative to purified water, Mean (plasma [1]; Table 20): 26.02%
TT clotting time prolongation relative to purified water, Mean (plasma [2]; Table 18): 13.59%
TT clotting time prolongation relative to purified water, Mean (plasma [2]; Table 19, values excluding one sample showing an extreme value): 20.96%
TT clotting time prolongation relative to purified water, Mean (plasma [2]; Table 20): 23.95%
aPTT clotting time prolongation relative to purified water, Mean (plasma [3]; Table 18): 7.31%
aPTT clotting time prolongation relative to purified water, Mean (plasma [3]; Table 19): 16.28%
aPTT clotting time prolongation relative to purified water, Mean (plasma [3]; Table 20): 29.82%

O=C[C@@H](O)[C@@H](O)[C@H](O)[C@H](O)CO [Mann, mannose]
PT clotting time prolongation relative to purified water, Mean (plasma [1]; Table 20, listed as Mann 3.1): 2.71%
PT clotting time prolongation relative to purified water, Mean (plasma [1]; Table 20, listed as Mann 6.2): 5.96%
PT clotting time prolongation relative to purified water, Mean (plasma [1]; Table 20, listed as Mann 12.4): 13.55%
TT clotting time prolongation relative to purified water, Mean (plasma [2]; Table 20, listed as Mann 3.1): 11.67%
TT clotting time prolongation relative to purified water, Mean (plasma [2]; Table 20, listed as Mann 6.2): 22.74%
TT clotting time prolongation relative to purified water, Mean (plasma [2]; Table 20, listed as Mann 12.4): 47.87%
aPTT clotting time prolongation relative to purified water, Mean (plasma [3]; Table 20, listed as Mann 3.1): 0.65%
aPTT clotting time prolongation relative to purified water, Mean (plasma [3]; Table 20, listed as Mann 6.2): 1.24%
aPTT clotting time prolongation relative to purified water, Mean (plasma [3]; Table 20, listed as Mann 12.4): 7.98%

O=C[C@H](O)[C@@H](O)[C@H](O)[C@H](O)CO [Gluc, glucose]
PT clotting time prolongation relative to purified water, Mean (plasma [1]; Table 19, listed as Gluc 6.2): 1.69%
PT clotting time prolongation relative to purified water, Mean (plasma [1]; Table 19, listed as Gluc 12.4): 2.26%
TT clotting time prolongation relative to purified water, Mean (plasma [2]; Table 19, values excluding one sample showing an extreme value, listed as Gluc 6.2): 16.24%
TT clotting time prolongation relative to purified water, Mean (plasma [2]; Table 19, values excluding one sample showing an extreme value, listed as Gluc 12.4): 27.82%
aPTT clotting time prolongation relative to purified water, Mean (plasma [3]; Table 19, listed as Gluc 6.2): 2.22%
aPTT clotting time prolongation relative to purified water, Mean (plasma [3]; Table 19, listed as Gluc 12.4): 2.89%

O=C[C@@H](O)[C@H](O)[C@H](O)CO [Ara, arabinose]
TT clotting time prolongation relative to purified water, Mean (plasma [2]; Table 18, listed as Ara 5.2): 13.40%
TT clotting time prolongation relative to purified water, Mean (plasma [2]; Table 18, listed as Ara 7.8): 22.92%

O=C[C@H](O)[C@H](O)[C@H](O)CO [Rib, ribose]
TT clotting time prolongation relative to purified water, Mean (plasma [2]; Table 19, values excluding one sample showing an extreme value, listed as Rib 5.2): 23.15%
TT clotting time prolongation relative to purified water, Mean (plasma [2]; Table 19, values excluding one sample showing an extreme value, listed as Rib 10.4): 52.50%

O=C[C@H](O)[C@@H](O)[C@H](O)CO [Xyl, xylose]
TT clotting time prolongation relative to purified water, Mean (plasma [2]; Table 18, listed as Xyl 1.04): 2.68%
TT clotting time prolongation relative to purified water, Mean (plasma [2]; Table 18, listed as Xyl 5.2): 14.59%
TT clotting time prolongation relative to purified water, Mean (plasma [2]; Table 18, listed as Xyl 7.8): 24.41%

O=C(CO)[C@@H](O)[C@H](O)[C@H](O)CO [Fruc, fructose]
PT clotting time prolongation relative to purified water, Mean (plasma [1]; Table 20): 0.54%
TT clotting time prolongation relative to purified water, Mean (plasma [2]; Table 20, listed as Fruc 6.2): 13.19%
TT clotting time prolongation relative to purified water, Mean (plasma [2]; Table 20, listed as Fruc 12.4): 30.07%
aPTT clotting time prolongation relative to purified water, Mean (plasma [3]; Table 20): −0.20%
aPTT clotting time prolongation relative to purified water, Mean (plasma [3]; Table 20, listed as Fruc 12.4): 0.58%

CN(C)C(=N)N=C(N)N [Metformin, metformin]
Body weight ([4]; 1 week): 21.00 g
Body weight ([4]; 2 weeks): 22.78 g and 26.344 g
Body weight gain ([4]; 2 weeks): 3.48 g
Body weight ([4]; 3 weeks): 23.84 g
Body weight gain ([4]; 3 weeks): 4.54 g
Body weight ([4]; 4 weeks): 25.18 g
Body weight gain ([4]; 4 weeks): 5.88 g and 4.600 g
Body weight ([4]; 5 weeks): 25.72 g
Body weight gain ([4]; 5 weeks): 6.42 g
Body weight ([4]; 6 weeks): 26.34 g
Body weight gain ([4]; 6 weeks): 7.04 g
Body weight ([4]; 7 weeks): 27.52 g
Body weight gain ([4]; 7 weeks): 8.22 g
Body weight ([4]; 8 weeks): 28.20 g
Body weight ([4]; Before admis.): 19.30 g
Weight, Mean ([4]; HFD mice, sample in drinking water, 1 week): 21.00 g
Weight, Mean ([4]; HFD mice, sample in drinking water, 6 weeks): 26.34 g
Glucose level, 0 min ([5]; GTT, high-fat diet mice, 0 min (fasting, before administration), mean): 144.20 mg/dL
Glucose level, 30 min ([5]; GTT, high-fat diet mice, 30 min, mean): 386.40 mg/dL
Glucose level, 60 min ([5]; GTT, high-fat diet mice, 60 min, mean): 301.40 mg/dL
Glucose level, 90 min ([5]; GTT, high-fat diet mice, 90 min, mean): 194.40 mg/dL
Glucose level, 120 min ([5]; GTT, high-fat diet mice, 120 min, mean): 135.20 mg/dL

NCCS(=O)(=O)O [Tau, taurine]
Body weight gain, Mean ([4]; HFD mice, sample in drinking water, 8 weeks): 9.52 g
body weight gain compared to the group administered with high-fat diet (HFD) alone ([4]; at 8 weeks after high-fat diet feeding, in words): significant reduction in body weight gain
fasting glucose level ([5]; 8 h fasted, 8 weeks of HFD, in words, comparator in the value): all lower than that of the mice administered with high-fat diet (HFD), and were similar to the blood glucose levels of normal mice
glucose control ability in GTT ([5]; glucose 1 g/kg i.p., 8 weeks of HFD, in words, comparator in the value): significantly higher than that of the group administered with HFD alone
